This note sets out measurements from publication PMC4861903, “Synthesis of a highly water-soluble acacetin prodrug for treating experimental atrial fibrillation in beagle dogs” (Scientific Reports, 2016).

The target of data set [1] is T1, hKv1.5 current (IKur, KCN5A) (Homo sapiens, UniProt P22460).
T1 construct: expressed in transfected cells
In words: Whole-cell patch clamp of hKv1.5 current in HEK 293 cells. In kind it is cell-based. As to conditions: 30 μM, at +50 mV, n = 5. On the procedure:
Whole-cell currents of hKv1.5 and hKv4.3 were recorded in established HEK 293 cell lines stably expressing hKv1.5 (KCN5A) and hKv4.3 (KCND3) and IKACh was determined in isolated rat atrial myocytes as described previously[12][31][32] and in Supplemental Materials. […]
Effects of acacetin prodrug on cardiac potassium currents
Whole-cell currents of hKv1.5 and hKv4.3 were recorded in established HEK 293 cell lines stably expressing hKv1.5 (KCN5A) and hKv4.3 (KCND3).1, 2 The cells were cultured in Dulbecco’s modified eagle’s medium (DMEM, Invitrogen, Hong Kong) supplemented with 10% fetal bovine serum and 400 µg/mL G418. Cells on a coverslip were transferred to an open cell chamber (0.5 ml) mounted on the stage of an inverted microscope and superfused with Tyrode’s solution at 2 mL/min. The whole cell patch-clamp technique was used as described previously.1, 2 The whole-cell membrane currents were measured using an EPC-10 amplifier and Pulse software (Heka Elektronik, Lambrecht, Germany). Borosilicate glass electrodes (1.2-mm OD) were pulled with a Brown/Flaming puller (model P-97, Sutter Instrument, Nato, CA) and had resistances of 1.5~2.5 MΩ when filled with the pipette solution. A 3-M KCl agar bridge was used as the reference electrode. The tip potential was zeroed before the patch pipette contacted the cell. […]
For orientation: The patch-clamp technique gives a direct electrical read-out from membranes.

Data set [2] is described as follows: Ex vivo bioconversion of acacetin prodrug in rat plasma. In kind it is in vitro ADME. As to conditions: 37 °C, n = 3. The protocol: The ex vivo bioconversion of acacetin prodrug was determined in rat plasma or rat hepatic microsome that contains high content alkaline phosphatase, as described previously[30] and in Supplemental Materials. The in vivo bioconversion of acacetin prodrug was determined in beagle dogs as described in Supplemental Materials. […]
Bioconversion of acacetin prodrug in rat plasma and hepatic microsomes
Hydrolysis of acacetin prodrug was initially determined in rat plasma. The 100 µL rat plasma samples containing 5 µg/mL prodrug was prepared at 4 °C and then incubated in a water bath at 37 °C and continuously shaken at 60 rpm. The plasma samples were collected at 0, 5, 15, 30, 60, 120, 180, 240 and 360 min, respectively. The reaction was terminated by adding 1 mL cold methanol containing the IS solution (50 ng/mL pentamethylquercetin). […]
The reaction mixture […]
was prepared in 50 mM Tris-HCl buffer (pH = 7.4) with 1 mM NADPH (nicotinamide adenine dinucleotide phosphate) and 0.5 mg/mL (total protein) microsomes. Prodrug solutions were added to the microsomes reaction mixture with a final concentration of 5 µg/mL. The reaction solution was incubated in a water bath at 37℃ and shaken at 60 rpm for 1 h. The samples were collected at 0, 1, 2, 15, 30 and 60 min. […] After centrifugation at 12000 g for 30 min, the supernatant was immediately analyzed by HPLC. […]

The next data set concerns QTc interval. In words: ECG QTc interval in anesthetized beagle dogs. In kind it is in vivo. As to conditions: for QTc interval after drug administration: at 35 min after administration, P = NS. On the procedure: QTc (corrected QT) interval of ECG was analyzed in anesthetized beagle dogs before and at 35 min after drug administration. QTc interval was not altered (P = NS, before vs. after drug administration) in vehicle animals (n = 5, 273.6 ± 2.6 ms vs. 276.1 ± 4.2 ms) and animals treated with 3 mg/kg (n = 6, 279.5 ± 2.5 ms vs. 282.3 ± 1.7 ms), 6 mg/kg (n = 8, 276.9 ± 2.4 ms vs. 279.1 ± 2.3 ms), or 12 mg/kg (n = 7, 274.1 ± 3.5 ms vs. 278.7 ± 2.9 ms) acacetin prodrug. […]
China) were anesthetized with pentobarbital (40 mg/kg, i.v.), supplemented as necessary during the experiment. The animal was kept on an operation table maintained at 37°C, intubated and ventilated with room air. The left femoral vein was cannulated to maintain fluid balance, anesthesia, and test articles. Lead II electrocardiogram (ECG) was continuously monitored with using a digital recording system (RM6240, Chengdu Instruments, China)
An action potential (MAP) recording- and pacing-catheter (Boston Scientific Ltd) was introduced to the right atrium through right jugular vein, and an electrical pacing catheter was introduced to left ventricle via […] for ventricular pacing (when necessary).
Bilateral cervical vagal nerves were isolated and bipolar electrodes were placed to stimulate efferent vagal nerves with 15 Hz, 0.2 ms duration voltage step (80-100% threshold) to induce a 50% reduction of heart rate. Ventricular pacing was performed with 2-ms voltage pulses (2.5 Hz, 150% diastolic threshold) when vagal nerves were continuously stimulated. […]
Instruments, China). […]

T1 sequence (P22460 whole entry): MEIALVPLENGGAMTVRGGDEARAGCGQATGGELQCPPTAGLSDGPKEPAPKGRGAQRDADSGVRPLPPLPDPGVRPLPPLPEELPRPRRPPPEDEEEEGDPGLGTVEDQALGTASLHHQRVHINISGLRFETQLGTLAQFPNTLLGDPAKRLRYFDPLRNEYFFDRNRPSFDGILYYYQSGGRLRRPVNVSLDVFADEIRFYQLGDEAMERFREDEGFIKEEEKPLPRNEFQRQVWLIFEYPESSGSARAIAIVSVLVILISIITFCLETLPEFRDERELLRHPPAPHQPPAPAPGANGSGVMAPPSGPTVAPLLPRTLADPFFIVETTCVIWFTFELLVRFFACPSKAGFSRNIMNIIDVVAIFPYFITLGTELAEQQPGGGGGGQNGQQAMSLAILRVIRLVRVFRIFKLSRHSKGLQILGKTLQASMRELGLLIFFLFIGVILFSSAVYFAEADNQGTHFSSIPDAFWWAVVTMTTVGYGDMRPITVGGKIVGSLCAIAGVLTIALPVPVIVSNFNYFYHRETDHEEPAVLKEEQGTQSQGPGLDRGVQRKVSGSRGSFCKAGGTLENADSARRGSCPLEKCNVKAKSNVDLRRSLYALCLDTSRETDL

`COc1ccc(-c2cc(=O)c3c(O)cc(OP(=O)([O-])[O-])cc3o2)cc1.[Na+].[Na+]` [acacetin prodrug, phosphate sodium salt of acacetin]: the “inhibition of hKv1.5 current” value in data set [1] is recorded as “no significant inhibition”. The “prodrug converted into acacetin” value came to 50% in data set [2] (60 min incubation) and 100% in data set [2] (within 240 min incubation). Further, the “QTc interval after drug administration” value is 282.3 ± 1.7 ms in the data set on QTc interval (3 mg/kg i.v., n = 6, before 279.5 ± 2.5 ms); 279.1 ± 2.3 ms in the data set with QTc interval (6 mg/kg i.v., n = 8, before 276.9 ± 2.4 ms); 278.7 ± 2.9 ms in the data set on QTc interval (12 mg/kg i.v., n = 7, before 274.1 ± 3.5 ms). For the same compound, in the data set on QTc interval (3, 6 and 12 mg/kg i.v., beagle dogs), the “effect on QT interval” value is “no effect”.
